Assay results as given in US11597729B2, “Tropomyosin receptor kinase inhibitor, preparation method therefor and use thereof” (JIANGSU VCARE PHARMATECH CO., LTD., priority 2018, dated 2023).

Key:
TrkB = TrkB (Homo sapiens, UniProt Q16620); experiment: Inhibitory activity test for Trk kinases (γ-33P-ATP isotope test), TrkB; assay type: biochemical; conditions: 33P-ATP 10 μM, 2 h reaction; read-out: Kinase IC50 TrkB
Method: (§1) Inhibitory Activity Test for Trk Kinases
(§2) In this experiment, the γ-^33P-ATP isotope test was used to test the inhibition effect of a compound on kinases TrkA, TrkB and TrkC, and the half maximal inhibitory concentration IC50 of the inhibitory activity of the compound on the enzymes was obtained.
(§3) A compound was dissolved in 100% DMSO to a particular concentration, and then the resulting solution was gradient-diluted by an automatic loading device to different concentrations of the test samples (DMSO dissolving solutions).
(§4) 3.1. The reaction substrate was diluted using the base reaction buffer;
(§5) 3.2. The kinase was added into the substrate solution and mixed gently and uniformly;
(§6) 3.3. The compounds of different concentrations diluted in 100% DMSO were added into the kinase solution using an automatic loading system, and incubated for 20 min at room temperature;
(§7) 3.4. ^33P-ATP (10 μM, 10 μCi/μl) was added at room temperature to initiate the kinase reaction, and the reaction was carried out for 2 h.
(§8) The reaction solution was subjected to an ion exchange filtration system to remove unreacted ATP and the generated ADP ions during the reaction. Then, the radiometric quantity of ^33P isotope in the substrate was detected.
(§9) The kinase activity in the system with the addition of the inhibitors of different concentrations was calculated from the radiometric quantity, to obtain the inhibitory effect of the compounds with different concentrations on the kinase activity. Fitting was performed using graphpad prism to obtain IC50 values of the compounds for inhibition.

TrkC = TrkC (Homo sapiens, UniProt Q16288); experiment: Inhibitory activity test for Trk kinases (γ-33P-ATP isotope test), TrkC; assay type: biochemical; conditions: 33P-ATP 10 μM, 2 h reaction; read-out: Kinase IC50 TrkC
Method: as §1, §2, §3, §4, §5, §6, §7, §8, §9

TrkA = TrkA (Homo sapiens, UniProt P04629); experiment: Inhibitory activity test for Trk kinases (γ-33P-ATP isotope test), TrkA; assay type: biochemical; conditions: 33P-ATP 10 μM, 2 h reaction; read-out: Kinase IC50 TrkA
Method: as §1, §2, §3, §4, §5, §6, §7, §8, §9

[1] = Metabolic stability in human liver microsomes; assay type: in vitro ADME; conditions: for Remaining % (60 min) / microsomal CLint at 1 μmol/L: human liver microsomes 0.5 mg/mL, compound 1 μmol/L; for Remaining % (60 min): 37° C.; for Negative control Remaining % (60 min): human liver microsomes, negative control incubation; for half-life at 1 μmol/L: human, liver microsomes; for half-life at 1 μmol/L / microsomal CLint at 1 μmol/L: pH 7.4; for microsomal CLint at 1 μmol/L: read-out: Clint (μL/min/mg protein)
Method: Testing on Metabolic Stability of Compounds in Human Liver Microsomes
The total volume of an incubation system was 250 μL, and 50 mmol/L PBS buffer (pH=7.4) was used to prepare incubation solutions of liver microsomes from various species with a protein concentration of 0.5 mg/mL. Before the start of the incubation, 2.5 μL of a 100 μmol/L compound to be tested was mixed with 197.5 μL of the above incubation solution, pre-incubated in a 37° C. water bath for 5 min, and then added with a 50 μL reducing coenzyme II solution (5 mmol/L) that was likewise pre-incubated for 5 min to start the reaction (in the reaction system, the protein content of liver microsomes from various species was 0.5 g/L, and the final concentration of the compound to be tested was 1 μmol/L), incubated in a 37° C. water bath with shaking, and taken out at 0, 5, 15, 30, and 60 min. 600 μL of a methanol solution of mixed positive and negative internal standards with internal standards Terfenadine (positive ion internal standard, 25 ng/mL) and Tolbutamide (negative ion internal standard, 50 ng/mL) was immediately added to terminate the reaction. The incubation solution after termination was shaken for 2 min and centrifuged (4° C., 16000 r/min) for 10 min, and the supernatant was taken for LC-MS/MS detection to quantitatively analyze the remaining amount of the parent drug. (DMSO<0.1%).
The concentration of the compound at 0 min incubation was regarded as 100%, and the concentrations at other incubation time points were converted into the remaining percentages. The natural logarithm of the remaining percentage at each time point was linearly regressed against the incubation time, and the slope k was calculated. According to the formula T1/2=−0.693/k, the in vitro half-life was calculated. Clearance in liver microsomes (CLint (μL/min/mg protein)=Ln (2)*1000/T1/2 (min)/Protein Conc(mg/ml)).
Test data of metabolic stability of the compounds of the present invention in human liver microsomes are listed in detail in table 3: […]

BaF3-tel-NTRK1 = experiment: Growth inhibition test, CellTiter-Glo, tel-NTRK1-BaF3 cells; assay type: cell-based; conditions: 72 hours incubation, read-out: Cell GI50 BaF3-tel-NTRK1
Method: (§10) Growth Inhibition Test for Tel-NTRK1-BaF3 and BaF3-LMNA-NTRK1 Cells
(§11) In this experiment, the CellTiter-Glo cell proliferation fluorescence assay was used to test the growth inhibitory effect of a compound on tel-NTRK1-BaF3 and BaF3-LMNA-NTRK1 transgenic cells, and the half maximal growth inhibitory concentration GI50 of the compound on the cells was obtained.
(§12) A compound to be tested was dissolved in DMSO to formulate 10 mM of a mother solution. The mother solution was 3× diluted to 10 mM, 3.333 mM, 1.111 mM, 0.370 mM, 0.123 mM, 0.041 mM, 0.014 mM, 0.005 mM, and 0.002 mM. The prepared solutions were each stored in a 0.5 ml sterilized dorft tube (Corning, USA). In addition, an equal volume of DMSO solvent was used as a blank control. With 10 concentration gradients, the plate was stored in vacuum at −20° C.
The tel-NTRK1-BaF3 and BaF3-LMNA-NTRK1 cell lines were cultured with RPMI 1640 (Corning, N.Y., USA)+10% fetal bovine serum (Gibico, Invitrogen, USA). After the cells were thawed, they were cultured for two generations to be tested.
(§13) Logarithmic growth phase cells (2000-2500 cells/well) were inoculated in a 12×8 96-well white opaque cell culture plate (Corning 3570, NY, USA) in a volume of 100 μL per well, and a drug was added to the cell plate (0.1 μL/well) at the final concentration of the compound of 10 μM, 3.3 μM, 1.1 μM, 0.37 μM, 0.12 IM, 0.04 μM, 0.014 IM, 0.005 μM, and 0.002 μM (0.4 uL of the drug solution was added to 400 ul of the cell homogenate, and then mixed uniformly, and the resulting mixture was added at 100 ul per well). The plate was incubated at 37° C. in a 5% CO2 incubator for 72 hours, and then 20 μL CellTiter-Glo cell proliferation fluorescence assay reagent was added. The plate was allowed to stand for 10 min, and read in the Envision Plate-Reader. […]
A corresponding […] value RLU of each well was obtained by reading in the Envision Plate-reader. […]
The biochemical activity of the compounds of the present invention was determined by the above experiment, and the measured GI50 values are shown in table 2: […]

BaF3-LMNA-NTRK1 = experiment: Growth inhibition test, CellTiter-Glo, BaF3-LMNA-NTRK1 cells; assay type: cell-based; conditions: 72 hours incubation, read-out: Cell GI50 BaF3-LMNA-NTRK1
Method: as §10, §11
as §12, with “In addition, an equal volume of DMSO solvent was used as a blank control. With 10 concentration gradients, the plate was stored in vacuum at −20° C.” left out
as §13, with “added.” for “added. The plate was allowed to stand for 10 min, and read in the Envision Plate-Reader.”

Chain of TrkB (Q16620 32-822, species assumed): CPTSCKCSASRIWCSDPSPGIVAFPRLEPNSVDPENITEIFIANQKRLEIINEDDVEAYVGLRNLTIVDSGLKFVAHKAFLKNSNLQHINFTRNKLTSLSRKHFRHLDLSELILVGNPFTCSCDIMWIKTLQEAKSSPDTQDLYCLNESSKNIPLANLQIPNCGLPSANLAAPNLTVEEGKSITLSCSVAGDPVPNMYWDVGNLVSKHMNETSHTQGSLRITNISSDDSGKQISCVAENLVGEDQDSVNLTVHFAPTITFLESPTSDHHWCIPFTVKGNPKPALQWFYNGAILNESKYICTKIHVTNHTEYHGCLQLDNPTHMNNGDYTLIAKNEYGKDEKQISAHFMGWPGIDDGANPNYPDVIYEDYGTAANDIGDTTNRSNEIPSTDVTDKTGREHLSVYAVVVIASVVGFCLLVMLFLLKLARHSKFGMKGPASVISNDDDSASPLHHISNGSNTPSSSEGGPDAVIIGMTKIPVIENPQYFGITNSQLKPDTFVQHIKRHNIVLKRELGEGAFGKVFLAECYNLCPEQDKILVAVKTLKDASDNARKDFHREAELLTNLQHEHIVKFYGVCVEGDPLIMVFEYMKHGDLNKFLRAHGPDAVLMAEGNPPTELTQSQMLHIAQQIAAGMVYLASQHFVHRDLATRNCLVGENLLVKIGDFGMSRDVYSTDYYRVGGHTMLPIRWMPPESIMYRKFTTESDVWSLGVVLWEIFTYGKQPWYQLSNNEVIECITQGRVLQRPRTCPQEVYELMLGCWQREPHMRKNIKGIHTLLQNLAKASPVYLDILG
Chain of TrkA (P04629 33-796, species assumed): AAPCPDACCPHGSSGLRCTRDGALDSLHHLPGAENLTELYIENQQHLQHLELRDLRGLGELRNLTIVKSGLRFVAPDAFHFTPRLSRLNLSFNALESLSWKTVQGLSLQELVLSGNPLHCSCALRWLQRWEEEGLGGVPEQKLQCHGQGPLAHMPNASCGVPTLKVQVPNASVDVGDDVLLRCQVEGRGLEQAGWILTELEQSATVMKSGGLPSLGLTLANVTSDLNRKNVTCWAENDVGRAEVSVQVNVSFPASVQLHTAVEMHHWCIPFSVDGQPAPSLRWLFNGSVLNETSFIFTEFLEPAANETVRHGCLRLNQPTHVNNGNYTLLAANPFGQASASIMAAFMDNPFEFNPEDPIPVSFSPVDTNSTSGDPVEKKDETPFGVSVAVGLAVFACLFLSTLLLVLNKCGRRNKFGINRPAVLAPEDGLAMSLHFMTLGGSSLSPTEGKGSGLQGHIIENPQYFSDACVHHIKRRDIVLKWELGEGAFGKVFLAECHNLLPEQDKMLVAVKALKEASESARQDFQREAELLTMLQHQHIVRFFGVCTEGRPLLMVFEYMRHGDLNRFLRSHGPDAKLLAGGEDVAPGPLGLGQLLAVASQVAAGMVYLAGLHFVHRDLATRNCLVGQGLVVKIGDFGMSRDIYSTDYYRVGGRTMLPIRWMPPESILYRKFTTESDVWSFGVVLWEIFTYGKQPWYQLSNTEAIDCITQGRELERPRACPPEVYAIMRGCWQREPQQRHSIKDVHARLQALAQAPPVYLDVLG
Chain of TrkC (Q16288 32-839, species assumed): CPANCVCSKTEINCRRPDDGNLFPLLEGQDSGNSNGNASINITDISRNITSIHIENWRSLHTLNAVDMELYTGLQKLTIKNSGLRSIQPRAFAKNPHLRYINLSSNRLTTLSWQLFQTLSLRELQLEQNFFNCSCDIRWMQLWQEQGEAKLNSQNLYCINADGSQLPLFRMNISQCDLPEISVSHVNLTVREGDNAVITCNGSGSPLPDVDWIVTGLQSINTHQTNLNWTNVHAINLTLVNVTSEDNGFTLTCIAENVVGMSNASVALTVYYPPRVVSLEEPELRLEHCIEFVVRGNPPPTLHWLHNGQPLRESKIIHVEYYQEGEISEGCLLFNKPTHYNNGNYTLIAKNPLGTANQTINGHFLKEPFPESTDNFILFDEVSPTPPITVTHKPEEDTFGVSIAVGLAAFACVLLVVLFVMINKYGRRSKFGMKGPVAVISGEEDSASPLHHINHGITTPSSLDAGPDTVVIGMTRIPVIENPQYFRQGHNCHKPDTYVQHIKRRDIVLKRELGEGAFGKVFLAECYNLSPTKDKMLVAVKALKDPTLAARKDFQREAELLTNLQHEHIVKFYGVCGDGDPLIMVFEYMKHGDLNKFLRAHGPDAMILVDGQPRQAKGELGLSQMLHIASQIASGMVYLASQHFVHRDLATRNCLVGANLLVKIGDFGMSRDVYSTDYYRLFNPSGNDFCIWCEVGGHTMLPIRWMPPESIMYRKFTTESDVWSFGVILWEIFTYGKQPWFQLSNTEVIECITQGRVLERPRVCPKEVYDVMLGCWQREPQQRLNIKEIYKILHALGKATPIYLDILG

IC50 (TrkA) [nM] | Remaining % (60 min) [1] [%] | Negative control Remaining % (60 min) [1] [%] | half-life at 1 μmol/L [1] [min] | microsomal CLint at 1 μmol/L [1] [µL/min/mg] | GI50 (BaF3-tel-NTRK1) [nM] | GI50 (BaF3-LMNA-NTRK1) [nM] | SMILES | IC50 (TrkB) [nM] | IC50 (TrkC) [nM]
 | 47.78 | 95.9 | 59.2 | 23.4 | 24.6 | 35.7 | O=C(Nc1cnn2ccc(N3CCC[C@@H]3c3cc(F)ccc3F)nc12)N1CC[C@H](O)C1 [LOXO-101, reference compound] |  | 
2.27 |  |  |  |  |  |  | CC1Cc2ncc(F)cc2[C@H]2CCCN2c2ccn3ncc(c3n2)C(=O)NN1C1CC1 (single isomer, unassigned) [Example 3a, (1^3E,1^4E,2^2R,5R or S)-6-cyclopropyl-3^3-fluoro-5-methyl-6,7-diazepine-1(5,3)-pyrazolo(1,5-a]pyrimidine-3(3,2)-pyridine-2(1,2)-pyrrolidine cyclooctane-8-one] | 1.58 | 0.46
3.81 |  |  |  |  | 18 |  | CC1Cc2ncc(F)cc2[C@H]2CCCN2c2ccn3ncc(c3n2)C(=O)NN1C1CC1 (stereo partly drawn) [Example 2, (1^3E,1^4E,2^2R)-6-cyclopropylamino-3^5-fluoro-5-methyl-6,7-diazepine-1(5,3)-pyrazolo[1,5-a]pyrimidine-3(3,2)-azabenzene-2(1,2)-pyrrolidine cyclooctane-8-one] |  | 
12.6 | 88.39 | 108.0 | 217 | 6.4 |  |  | CN1CCc2ncc(F)cc2[C@H]2CCCN2c2ccn3ncc(c3n2)C(=O)N1 [Example 4, (R,1^3E,1^4E)-3^5-fluoro-6-methyl-6,7-diazepine-1(5,3)-pyrazolo[1,5-a]pyrimidine-3(3,2)-azabenzene-2(1,2)-pyrrolidine cyclooctane-8-one] |  | 
2.09 |  |  |  |  |  |  | CC(C)N1CCc2ncc(F)cc2[C@H]2CCCN2c2ccn3ncc(c3n2)C(=O)N1 [Example 6, (R,1^3E,1^4E)-3^5-fluoro-6-isopropyl-6,7-diazepine-1(5,3)-pyrazolo[1,5-a]pyrimidine-3(3,2)-pyridine-2(1,2)-pyrrolidine cyclooctane-8-one] | 0.83 | 0.29
7.92 |  |  |  |  |  |  | CCN1CCc2ncc(F)cc2[C@H]2CCCN2c2ccn3ncc(c3n2)C(=O)N1 [Example 5, (R,1^3E,1^4E)-6-ethyl-3^3-fluoro-6,7-diazepine-1(5,3)-pyrazolo[1,5-a]pyrimidine-3(3,2)-azabenzene-2(1,2)-pyrrolidine cyclooctane-8-one] |  | 
2.36 |  |  |  |  |  |  | CC(C)CN1CCc2ncc(F)cc2[C@H]2CCCN2c2ccn3ncc(c3n2)C(=O)N1 [Example 9, (R,1^3E,1^4E)-3^5-fluoro-6-isobutyl-6,7-diazepine-1(5,3)-pyrazolo[1,5-a]pyrimidine-3(3,2)-pyridine-2(1,2)-pyrrolidine cyclooctane-8-one] | 2.16 | 0.32
2.16 |  |  |  |  |  |  | CC1Cc2ncc(F)cc2[C@H]2CCCN2c2ccn3ncc(c3n2)C(=O)NN1C1CC1 (single isomer, unassigned) [Example 3b, (1^3E,1^4E,2^2R,5R or S)-6-cyclopropyl-3^5-fluoro-5-methyl-6,7-diazepine-1(5,3)-pyrazolo(1,5-a]pyrimidine-3(3,2)-pyridine-2(1,2)-pyrrolidine cyclooctane-8-one] | 1.13 | 0.38
 | 6.70 | 102 | 15.3 | 90.6 |  |  | C[C@@H]1CCc2ncc(F)cc2[C@H]2CCCN2c2ccn3ncc(c3n2)C(=O)N1 [LOXO-195, reference compound] |  | 

SMILES | IC50 (TrkA) [nM] | Remaining % (60 min) [1] [%] | Negative control Remaining % (60 min) [1] [%] | half-life at 1 μmol/L [1] [min] | microsomal CLint at 1 μmol/L [1] [µL/min/mg] | GI50 (BaF3-tel-NTRK1) [nM] | GI50 (BaF3-LMNA-NTRK1) [nM] | IC50 (TrkB) [nM] | IC50 (TrkC) [nM]
CC1Cc2ncc(F)cc2[C@H]2CCCN2c2ccn3ncc(c3n2)C(=O)NN1C (single isomer, unassigned) [Example 7a, (1^3E,1^4E,2^2R,5R or S)-3^5-fluoro-5,6-dimethyl-6,7-diazepine-1(5,3)-pyrazolo[1,5-a]pyrimidine-3(3,2)-pyridine-2(1,2)-pyrrolidine cyclooctane-8-one] | 3.2 |  |  |  |  |  |  | 4.04 | 0.58
CCN1NC(=O)c2cnn3ccc(nc23)N2CCC[C@@H]2c2cc(F)cnc2CC1C (single isomer, unassigned) [Example 8b, (1^3E,1^4E,2^2R,5R or S)-3^5-fluoro-6-ethyl-5-methyl-6,7-diazepine-1(5,3)-pyrazolo[1,5-a]pyrimidine-3(3,2)-pyridine-2(1,2)-pyrrolidine cyclooctane-8-one] | 1.85 |  |  |  |  |  |  | 1.35 | 0.34
CCN1NC(=O)c2cnn3ccc(nc23)N2CCC[C@@H]2c2cc(F)cnc2CC1C (single isomer, unassigned) [Example 8a, (1^3E,1^4E,2^2R,5R or S)-3^5-fluoro-6-ethyl-5-methyl-6,7-diazepine-1(5,3)-pyrazolo[1,5-a]pyrimidine-3(3,2)-pyridine-2(1,2)-pyrrolidine cyclooctane-8-one] | 4.01 |  |  |  |  |  |  | 6.19 | 0.76
CC1Cc2ncc(F)cc2[C@H]2CCCN2c2ccn3ncc(c3n2)C(=O)NN1C (single isomer, unassigned) [Example 7b, (1^3E,1^4E,2^2R,5R or S)-3^5-fluoro-5,6-dimethyl-6,7-diazepine-1(5,3)-pyrazolo[1,5-a]pyrimidine-3(3,2)-pyridine-2(1,2)-pyrrolidine cyclooctane-8-one] | 2.62 |  |  |  |  |  |  | 0.71 | 0.19
